Consider 5 substances from paper PMC6814738, “Bacterial MgrB peptide activates chemoreceptor Fpr3 in mouse accessory olfactory system and drives avoidance behaviour” (Nature Communications, 2019).

The subject of assay [1] is vomeronasal sensory neurons (VSNs). Briefly: VNO whole-mount en face confocal Ca2+ imaging of VSN dendritic knobs (Fig. 4, 5). The class given is cell-based, mouse. Set-up: key to Ca2+ response of f-MKKFRW-responsive VSN knobs / Fpeak: normalised to knob resting fluorescence F0 before stimulation. The text has this: Mice (6–20 week old, either sex) were euthanized by CO2 inhalation according to institutional guidelines. After decapitation, the skin was removed from the skull, the mandible was cut off and the cranium was opened by a sagittal cut, 1–2-mm right-lateral in parallel to the midline. The palate and the right incisor were removed and the hemisected skull was mounted in low-melting agarose (4%). The bony capsule of the VNO was opened with fine forceps and the nonsensory epithelium was stripped off. Tissue and cell debris were gently washed off, and the en face preparation was superfused with physiological S1 solution (120 mM NaCl, 25 mM NaHCO3, 5 mM KCl, 1 mM MgSO4, 1 mM CaCl2, 10 mM glucose, 5 mM BES, pH 7.3) saturated with carbogen (95% O2, 5% CO2).
Loading of the VNE with Rhod-2/AM (5–15 µM, 1 h) was performed in S1 solution under carbogen atmosphere at RT. Images were taken with an upright confocal laser scanning microscope (Leica TCS SP5 II, 20x water immersion objective HCX APO L20x/1.0w) equipped with Ar and He/Ne lasers. GFP was excited at 488 nm, Venus at 514 nm and Rhod-2 at 543 nm. Emission was measured at 490–520 nm (GFP), 520–600 nm (Venus) and 560–680 nm (Rhod-2). To minimise interference between Venus and Rhod-2 fluorescence, images were taken sequentially (sample interval per image, 3–4 s). Peptide stimuli were applied to the VNE surface with a local perfusion system which, when positioned close to the anterior end of the VNO, produced a continuous solution stream from rostral to caudal along the VNO axis. Data analysis was performed with the open source software ImageJ (NIH). Ca^2+ responses of individual dendritic knobs were normalised to the knob resting fluorescence level obtained before stimulation (ratio Fx/F0, Fx = actual fluorescence; F0 = mean fluorescence of 3–5 images before ligand application). Mapping was performed by superimposing Ca^2+ peak images onto images showing intrinsic fluorescence for specific markers.
Predator urine mix was composed of urine from mountain lion, coyote, bobcat, fox and marten (at equal volume ratios), purchased from Predatorpee (USA) and Kieferle (Germany). The fMet peptides were as described above. Stimuli were applied in S2 solution (140 mM NaCl, 5 mM KCl, 10 mM HEPES, 1 mM CaCl2, 1 mM MgCl2, 10 mM glucose, pH 7.3 with NaOH).

The subject of the next assay is male mice. Briefly: Behavioural avoidance test, FEU vs. FEU supplemented with peptide (Fig. 8, Supplementary Fig. 4). The class given is in vivo, mouse. Particulars: for avoidance, in words: 100 µM, B6 mice (f-MKKFRW also ΔFpr3-lacZ+/+, cGαo+/−, Trpc2+/−); for avoidance index: 100 µM in FEU, mean ± s.e.m.; for Preference (%): group mean value, FEU vs FEU supplemented with 100 µM peptide. The procedure:
These assays were adapted from behavioural procedures described previously[14],[60]. We tested avoidance by giving adult male mice (8–14 week old) of various genotypes a choice to freely investigate two types of chemical stimuli: FEU vs. FEU supplemented with a peptide. Mice were sexually naïve and not exposed to the test stimuli prior to the testing day. Mice were habituated for three days (40 min each day) to clean filter papers (2.5 cm diameter), each deposited in a sterile plastic culture dish and placed in opposite corners of the test cage (30 × 12 cm). After the third habituation period, the test subject was transferred into a new cage containing fresh filter papers/dishes with either of the two test stimuli. One filter paper was impregnated with 45 µl of fresh urine pooled from two sexually naïve female B6 mice (8–16 weeks old) in oestrus (FEU, female oestrous urine) and 5 µl physiological solution containing (in mM): NaCl, 130; KCl, 5; Na-Hepes, 10; CaCl2, 2; glucose, 10; pH = 7.4. For testing the effects of specific peptides, the second filter paper was impregnated with FEU supplemented with a given peptide (100 or 50 µM final concentration, dissolved in physiological solution). Direct physical contact was allowed. Behaviour was recorded for 10 min from the top of the cage. Mice were exposed only once to a given peptide solution, and were exposed to only one peptide stimulus per day. Stimuli were presented in randomised order. […] This investigative behaviour was quantified as the time spent in close contact with each filter paper, scored manually by an observer blind to the experimental conditions using Behavioural Observation Research Interactive Software (BORIS)[85]. Contact time was measured as the time during which the nose crossed the border of a petri dish containing impregnated filter paper. An avoidance index was calculated as (TP — aTU)/(aTP + aTU), with TP as the time an individual mouse investigated a FEU-peptide mixture, aTP as the average time of all tested mice investigating this stimulus and aTU as the average time of all mice investigating FEU without added peptide. Negative values represent avoidance and positive values represent attraction. For analysing investigation of sick conspecifics, B6 mice were injected either with LPS or PBS as described above. In total, 4 h post injection, these mice were anaesthetised with 165 mg/kg ketamine (Pharmacia GmbH, Berlin, Germany) and 11 mg/kg xylazine (Bayer Health Care, Leverkusen, Germany) and then used in behavioural tests.

The test system of another assay is mouse Fpr3. The conditions noted are these: cited from earlier work. The procedure: We estimate the fraction of knobs responding to f-MKKFRW as ~0.15%, which is similar to the fraction of cells in the VNE that express Fpr3[30]. Strikingly, the sensitivity and sequence-selectivity profile of these responses was nearly identical to the results that we obtained for heterologously expressed Fpr3. The detection threshold of native VSNs for f-MKKFRW was ≤0.1 µM (Fig. 4f), virtually the same as for Fpr3-expres ... || Given the importance of the olfactory system in a variety of behavioural avoidance and defence mechanisms[14],[62],[63], we reasoned that in vivo detection of MgrB peptide may evoke an avoidance reaction in mice. We devised a behavioural assay[14],[60] in order to determine whether direct nasal contact with MgrB peptide evokes unconditioned, innate avoidance (Fig. 8a and Methods). […] (Fig ... || We used custom-made peptides with a length of 6–21 amino acids to screen for agonists. Sequences of fMet peptides were designed according to motifs present at the N-termini of 15,125 specific bacterial proteins as annotated in UniProt. Peptides were chemically synthesised, purified, and verified by mass spectroscopy (MALDI-TOF) by commercial suppliers. Purity of all peptides was >95%. Source, sequence and purity of each peptide are listed in Supplementary Data 1. Lyophilised peptides were routinely dissolved in the Ca^2+ imaging assay buffer C1 (130 mM NaCl, 10 mM HEPES, 5 mM KCl, 2 mM CaCl2, ...

Setting [2] is: B6, n = 10-11, negative = avoidance.

Where “and” joins values, the source holds several entries; their conditions need not be identical. Equal entries are not always repeated. Where two headings read alike, the source gives them in different places.

In turn, MKKFRW [non-formylated MKKFRW peptide] had a Fpeak in assay [1] (Fig. 4h, mean of individual knobs, n = 103 f-MKKFRW, 21 f-MKKFRWVVL, 68 MKKFRW, 26 f-MGFFIS, 63 PUM) of 0.00. In addition, in assay [1] (VNE of adult B6 mice, f-MKKFRW 1 µM), the “Ca2+ responses in VSNs, in words” value is reported as “failed to evoke Ca^2+ responses in VSNs”. Further, the “Ca2+ response of f-MKKFRW-responsive VSN knobs” value in assay [1] (adult B6 mice, mean ± s.d., N = 103 (f-MKKFRW), 21 (f-MKKFRWVVL), 68 (MKKFRW), 26 (f-MGFFIS), 63 (PUM), Fig. 4h) is given as 0.00 ± 0.00. Moreover, the “avoidance, in words” value in the assay on male mice is “failed to elicit avoidance”. The avoidance index in the assay on male mice (setting [2]) is 0.07 ± 0.05; with male mice (Trpc2 +/−), 0.02 ± 0.16; in the assay on male mice (Trpc2 −/−), 0.14 ± 0.17; in the assay with male mice (cGαo +/−), −0.12 ± 0.08; in the assay with male mice (cGαo −/−, n = 13) it was 0.21 ± 0.11; in the assay on male mice (∆Fpr3-lacZ +/+) it was 0.12 ± 0.11. This substance displayed an avoidance index in the assay on male mice (∆Fpr3-lacZ −/−, n = 12) of 0.20 ± 0.12. Moreover, the “Preference Index” value with male mice (Fig. 8c, individual values, B6 mice) was -0.0604 and 0.2531 and -0.1298 and -0.1953 and 0.1497 and 0.2996 and 0.2407 and -0.00533 and -0.09796 and 0.2025 and 0.1402; in the assay with male mice (Fig. 8c, mean, B6 mice, n = 11 f-MKKFRW, 11 MKKFRW, 10 f-MGFFIS, 10 f-MEQQNK, FEU control -0.002) it was 0.07; in the assay on male mice (Fig. 8e, individual values, cGao +/-) it was -0.2952 and -0.1477 and 0.0923 and 0.1621 and -0.0653 and -0.08718 and -0.2984 and 0.512 and -0.2293 and -0.2843 and -0.4122 and -0.3523; in the assay with male mice (Fig. 8e, individual values, cGao -/-), -0.00407 and 0.301 and 0.1658 and 0.1525 and 0.9449 and 0.3984 and 0.4927 and 0.2412 and 0.4087 and 0.6592 and -0.3896 and -0.3365 and -0.3471; in the assay with male mice (Fig. 8e, mean, cGao +/-, n = 13 f-MKKFRW, 12 MKKFRW, FEU control -0.0358), -0.12; in the assay with male mice (Fig. 8e, mean, cGao -/-, n = 13, FEU control 0.15) it was 0.21. Besides, the “Preference Index” value in the assay with male mice (Fig. 8f, individual values, Trpc2 +/-) was 0.2866 and 0.03638 and -0.02867 and 0.9217 and 0.4878 and -0.4504 and -0.342 and -0.3772 and -0.3362; in the assay with male mice (Fig. 8f, individual values, Trpc2 -/-), 1.085 and 1.60E-05 and 0.07163 and 0.2257 and 0.5213 and -0.3383 and -0.4081 and -0.0323; with male mice (Fig. 8f, mean, Trpc2 +/-, n = 12 f-MKKFRW, 9 MKKFRW, FEU control -0.0531) it was 0.022; with male mice (Fig. 8f, mean, Trpc2 -/-, n = 11 f-MKKFRW, 8 MKKFRW, FEU control -0.10), 0.14; in the assay with male mice (Fig. 8d, individual values, ∆Fpr3-lacZ +/+), -0.2521 and -0.1287 and 0.07074 and 0.3269 and 0.2942 and 0.3844; in the assay on male mice (Fig. 8d, individual values, ∆Fpr3-lacZ -/-) it was -0.1393 and 0.3319 and 0.8558 and 1.088 and -0.03627 and 0.0259 and -0.07697 and -0.00886 and -0.09833 and -0.1976 and 0.3575 and 0.2784. Also, the “Preference Index” value was determined as 0.12 in the assay on male mice (Fig. 8d, mean, ∆Fpr3-lacZ +/+, n = 9 f-MKKFRW, 6 MKKFRW, FEU control -0.06) and 0.20 with male mice (Fig. 8d, mean, ∆Fpr3-lacZ -/-, n = 12, FEU control 0.19). For the same substance, the “Preference (%)” value is listed as 7.718% in the assay with male mice (Fig. 8g, ∆Fpr3-lacZ +/+ males, FEU/FEU control -5.85844); 9.878% in the assay with male mice (Fig. 8g, ∆Fpr3-lacZ -/- males, FEU/FEU control 2.58474); 6.911% in the assay on male mice (Fig. 8h, Trpc2 +/- males, FEU/FEU control 0.100694); -1.784% in the assay on male mice (Fig. 8h, Trpc2 -/- males, FEU/FEU control -3.21189).

Turning to W-peptide [reference compound], the “agonism at mouse Fpr3, in words” value with mouse Fpr3 was “agonists for mouse Fpr3”.

Take f-MFQQNK [reference compound]: the “avoidance, in words” value with male mice is on record as “failed to elicit avoidance”. The avoidance index with male mice (setting [2]) is given as 0.04 ± 0.09. In the assay with mouse Fpr3, the “activation of heterologously expressed Fpr3, in words” value is given as “failed to activate heterologously expressed Fpr3”.

Regarding “f-MLFYFS [signal peptide fragment identified as agonist for mouse Fpr3, reference compound]”, the “agonism at mouse Fpr3, in words” value with mouse Fpr3 (signal peptide fragments) is listed as “agonists for mouse Fpr3”.

For the substance f-MLFYLA, the “agonism at mouse Fpr3, in words” value in the assay with mouse Fpr3 (signal peptide fragments) was “agonists for mouse Fpr3”.
